Measurements from patent publication US6403593B1, “Triazole compounds and the use thereof” (Abbott Laboratories, priority 1995, dated 2002).
Structures can show the parent of a compound that is named as a salt. Where two headings read alike, the source gives them in different places.

How the values were obtained:
human D3 receptor = molecular target: T1, human D3 receptor (Homo sapiens, UniProt P35462); experiment: D3 binding assay (125I-iodosulpiride); conditions: for Selectivity KiD2/KiD3: ratio of D2 (3H-spiperone) Ki to D3 (125I-sulpiride) Ki
T1 construct: host or cells: CCL 1.3 mouse fibroblasts
T1 sequence (P35462 whole entry): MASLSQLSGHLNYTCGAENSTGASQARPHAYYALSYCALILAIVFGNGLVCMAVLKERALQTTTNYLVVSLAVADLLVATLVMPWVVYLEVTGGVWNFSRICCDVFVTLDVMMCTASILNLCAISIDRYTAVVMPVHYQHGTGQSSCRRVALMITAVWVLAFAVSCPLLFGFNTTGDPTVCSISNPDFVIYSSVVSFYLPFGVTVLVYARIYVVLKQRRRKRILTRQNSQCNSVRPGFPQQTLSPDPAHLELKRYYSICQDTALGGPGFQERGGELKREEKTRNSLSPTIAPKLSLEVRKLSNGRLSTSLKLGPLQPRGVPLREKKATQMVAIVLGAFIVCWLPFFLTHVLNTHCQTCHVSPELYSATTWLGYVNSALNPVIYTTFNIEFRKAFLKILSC
Experimental: Cloned human D3 receptor-expressing CCL 1.3 mouse fibroblasts obtained from Res. Biochemicals Internat. One Strathmore Rd., Natick, Mass. 01760-2418 USA, were used for the binding studies.
The D3-expressing cells where grown in RPMI-1640 containing 10% fetal calf serum (GIBCO No. 041-32400 N); 100 U/ml penicillin and 0.2% streptomycin (GIBCO BRL, Gaithersburg, Md., USA). After 48h, the cells were washed with PBS and incubated with 0.05% trypsin-containing PBS for 5 min. Neutralization with medium was then carried out, and the cells were collected by centrifugation at 300×g. To lyze the cells, the pellet was briefly washed with lysis buffer (5 mM tris-HCl, pH 7.4, with 10% glycerol) and then incubated in a concentration of 10^7 cells/ml of lysis buffer at 4° C. for 30 min. The cells were centrifuged at 200×g for 10 min and the pellet was stored in liquid nitrogen.
For the D3 receptor binding assay, the membranes were suspended in incubation buffer (50 mM tris-HCl, pH 7.4, with […], 5 mM KCl, 2 mM CaCl2, 2 mM MgCl2, 10 μM quinolinol, 0.1% ascorbic acid and 0.1% BSA) in a concentration of about 10^6 cells/250 μl of assay mixture and incubated at 30° C. with 0.1 nM ^125iodosulpiride in the presence and absence of test substance. The non-specific binding was determines using 10^−6 M spiperone.
After 60 min, the free and the bound radioligand was separated by filtration through GF/B glasd fiber filters (Whatman, England) on a Skatron cell collector (Skatron, Lier, Norway), and the filters were washed with ice-cold tris-HCl buffer, pH 7.4. The radioactivity collected on the filters was quantified using a Packard 2200 CA ligand scintillation counter.
The Ki values were determined by non-linear regression analysis using the LIGAND program.

[1] = cloned human D3 receptor in CCL 1.3 mouse fibroblast membranes, 0.1 nM 125I-iodosulpiride, read-out: D3 125I-sulpiride Ki

SMILES	melting point [°C]	Ki (human D3 receptor) [nM]	Selectivity KiD2/KiD3 (human D3 receptor)	Ki (human D3 receptor; [1]) [nM]	affinity for the D3 receptor (in words) (human D3 receptor; D3 binding assay)
CNc1nnc(SCCCN2CCN(c3cccc(C(F)F)c3)CC2)n1C (as salt: hydrochloride) [Example 37]	234 to 235				
Cn1c(N)nnc1SCCCN1CCN(c2cccc(C(F)(F)F)c2)CC1 [Example 10]		4.5	49		
Cn1c(N)nnc1SCCCN1CCN(c2cc(C(C)(C)C)cc(C(C)(C)C)c2)CC1 [Example 15]			58	8.8	
CCn1c(N)nnc1SCCCN1CCN(c2cccc(C(F)F)c2)CC1 [Example 24]			67	1.8	
CNc1nnc(SCCCN2CCN(c3cccc(C(F)F)c3)CC2)n1C [Example 37]			176	1.7	
Cc1cc(N2CCN(CCCSc3nnc(N)n3C)CC2)nc(-n2cccc2)n1 [Example 41]	65 to 67		185	8.1	
CC(=CCN1CCN(c2cc(C(F)(F)F)nc(C(C)(C)C)n2)CC1)CSc1nnc(N)n1C [Example 42]	67 to 72		182	13.4	
Cc1nnc(/C=C/CN2CCN(c3ccccc3)CC2)n1-c1ccccc1 [reference compound]				4100	virtually no affinity
